In article PMC11309765, “Mechanism of the blood-brain barrier modulation by cadherin peptides” (Exploration of drug science, 2024):
Entries after “also recorded” stand apart in the source; their conditions may differ. Where a SMILES comes first, the peptide text is derived from it. Bridges are numbered along the chain shown (N, C = ends).

What was measured:
[1] = system: Madin-Darby canine kidney (MDCK) cell monolayers; conditions: Val6 mutation; cited from earlier work
Excerpt: Currently, the mechanism of binding as well as the EC1 binding site of ADT peptides have not been elucidated; thus, this study was aimed at using nuclear magnetic resonance (NMR) and molecular docking experiments to determine ADTC5 binding properties (Table 1) on EC1. […] Therefore, the Val6 residue was mutated to the Glu6 or Tyr6 re ...

BBB tight junctions = conditions: cited from earlier work
Excerpt: As BBBMs, the in vivo activities of ADT and HAV peptides to modulate the BBB were transient and reversible. […] Different cadherin peptides produced different durations of the BBB opening for different sizes of del ...

[2] = system: blood-brain barrier (BBB); conditions: in-situ rat brain perfusion; cited from earlier work
[3] = system: blood-brain barrier (BBB); conditions: cited from earlier work
Excerpt: In addition, Gd-DTPA delivery to the brain was enhanced when co-administered with ADTC5 in living mice upon detection with magnetic resonance imaging (MRI). […] Different cadherin peptides produced different durations of the BBB opening for different sizes of del ...

[4] = target: T1, EC1 domain of human E-cadherin (Homo sapiens, UniProt P12830); assay: 1H-15N HSQC NMR titration of 15N-labeled EC1 (chemical shift perturbation, CSP); type: binding
T1 construct: Strep-tag I (WSHPQFEK) (C); factor Xa cleavage site (IEGR) linker (C); made in house; host or cells: E. coli BL21(DE3), plasmid pASK-IBA6
T1 sequence (P12830 155-292): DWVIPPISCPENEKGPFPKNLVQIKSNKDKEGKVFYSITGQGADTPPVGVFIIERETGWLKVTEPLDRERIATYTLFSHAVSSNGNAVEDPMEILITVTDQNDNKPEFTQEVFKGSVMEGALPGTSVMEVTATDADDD
Excerpt: Our previous method was used to express and purify the ^15N-labeled EC1 domain [22]. Briefly, the plasmid (pASK-IBA6, Genosys, Woodland, TX) contains DNA construct of 138 amino acid residues. The EC1 domain has 110 residues connected to 28 amino acids from the EC2 domain sequence at the C-terminus tail followed by a WSHPQFEK sequence of Streptag I that is linked by an IEGR sequence for a factor Xa cleavage. Then, the plasmid was transformed into competent E. coli BL21(DE3) cells (New England Biosciences, Ipswich, MA). The cells were incubated at 37°C overnight on a plate with lysogeny broth (LB) agar containing […] ampicillin. A single colony of E. coli cells was picked and incubated in 10 mL of LB media followed by the addition of 10 μL ampicillin at 100 mg/mL concentration. Then, the mixture was incubated in an orbital shaker at 250 rpm and 37°C. ^15N-labeled NH4Cl was added to 250 mL of M9 minimal media in 1 L Erlenmeyer flask to produce the ^15N-labeled EC1 domain. A 24 μL of anhydrotetracycline (2 mg/mL; Promega Inc., Madison, WI) was spiked into the cell culture when it reached OD550 of 0.5–0.6 to induce the EC1 protein expression. Then, the cell mixture was incubated at 30°C for 6–7 h followed by cell harvesting using centrifugation at 4,500 xg. The resulting cell pellets were stored at −80°C.
For isolation of purified ^15N-EC1, E. coli cell pellets were lysed using 20,000 psi French press (Thermo Electron Corporation) in 10 mL of binding buffer. This binding buffer consists of 150 mM NaCl, 1.0 mM EDTA, 0.02% NaN3, and 100 mM Tris-HCl at pH = 8.0. The mixture was centrifuged at 21,000 xg, 4°C, and 1 h to get rid of cellular debris. The EC1 domain was in the supernatant and the Amicon Ultra protein concentrator [10 kDa molecular weight (MW) cut-off, EMD Millipore, Billerica, MA] was used to concentrate the protein upon centrifugation at 4,500 rpm, 20 min, and 4°C. […] The purity of pooled EC1 fractions was evaluated by SDS-PAGE. Protein concentration was calculated using UV spectrometry at 280 nm (coefficient absorption = 19,480 M^–1 cm^–1). […]

## CC(=O)N[C@H]1CSSC[C@@H](C(N)=O)NC(=O)[C@H](C(C)C)NC(=O)[C@@H]2CCCN2C(=O)[C@@H]2CCCN2C(=O)[C@H]([C@@H](C)O)NC(=O)[C@H](CC(=O)O)NC1=O [ADTC5] (Ac-CDTPPVC-NH2; disulfide 1-7)
[1]
  modulatory activity in MDCK cell monolayers: mutation of this residue reduced inhibitory activity in preventing the resealing of the paracellular pathway
BBB tight junctions
  anatomical structure of BBB tight junctions: did not change
[2]
  delivery of various molecules to the brain: enhanced the delivery of various molecules to the brain
[3]; 65 kDa Galbumin
  duration of paracellular porosity for Galbumin: less than 20 min
[3]; 150 kDa mAb
  delivery of mAb to brain: had to be administered together with 150 kDa mAb for delivering mAb to the brain
[3]; co-administered, living mice, MRI
  Gd-DTPA delivery to the brain: enhanced
[3]; i.v., co-administered, mice, mass spectrometry, NIRF, MRI
  brain deposition of peptides, Galbumin and mAb: significantly enhanced brain deposition of peptides, Gd-labeled albumin (Galbumin), and mAb
[3]; small molecule Gd-DTPA
  duration of in vivo paracellular opening for Gd-DTPA: less than 4 h
[4]; 1H-15N HSQC titration, pH 6.0
  EC1 residues with largest/significant NH chemical shift perturbation: One of the dramatic changes was seen for residue I4 with larger CSP compared to other residues; also recorded: In addition to the strong effect of the NH of I4 residue, significant shifts were also observed in the NHs of I38, I53, V98, D103, and F113 residues; also recorded: large CSP changes on D103, and F113 residues at the C-terminal tail; also recorded: large CSP changes were also observed at the I4, I7, and S8 residues at the N-terminus domain
[4]; comparison among ADTC5, ADTC7, ADTC9
  relative binding affinity to EC1: highest binding affinity to the EC1 domain of E-cadherin compared to ADTC7 and ADTC9; also recorded: binds better to the EC1 domain compared to ADTC7 and ADTC9
[4]; comparison of CSP profiles / conformational effect, 1H-15N HSQC
  CSP result in words: influences the conformation of the EC1 C-terminal tail; also recorded: All seven clusters have consistent high CSPs on active residues T97, V98, and D103; also recorded: binding of ADTC5 to EC1 may induce conformational change at the C-terminal tail; also recorded: binding of ADTC5 can cause conformational change at the N-terminal region or domain swapping region
